Experimental data published in ChEMBL document CHEMBL2375322, “Synthesis using microwave irradiation and antibacterial evaluation of new N,O-acetals and N,S-acetals derived from 2-amino-1,4-naphthoquinones” (2013).
Values after ≈ are worked out from the molar mass of the structure shown. Active and inactive are the calls of the source. The rule behind the calls is not given here.

Legend:
Type in all cases: functional
[1] = system: Staphylococcus epidermidis; test: Antibacterial activity against oxacillin-resistant Staphylococcus epidermidis after 18 to 24 hrs by disc diffusion assay
[2] = system: Staphylococcus haemolyticus; test: Antibacterial activity against oxacillin-resistant Staphylococcus haemolyticus after 18 to 24 hrs by disc diffusion assay
Staphylococcus aureus [3] = test: Antibacterial activity against oxacillin-resistant Staphylococcus aureus after 18 to 24 hrs by disc diffusion assay
Staphylococcus aureus [4] = test: Antibacterial activity against Staphylococcus aureus ATCC 25923 after 18 to 24 hrs by disc diffusion assay
Staphylococcus aureus [5] = test: Antibacterial activity against methicillin-resistant Staphylococcus aureus after 18 to 24 hrs by disc diffusion assay
Pseudomonas aeruginosa [6] = test: Antibacterial activity against Pseudomonas aeruginosa after 18 to 24 hrs by disc diffusion assay
Klebsiella pneumoniae [7] = test: Antibacterial activity against Klebsiella pneumoniae after 18 to 24 hrs by disc diffusion assay
Staphylococcus aureus [8] = test: Antibacterial activity against Staphylococcus aureus after 18 to 24 hrs by disc diffusion assay
[9] = system: Staphylococcus haemolyticus; test: Antibacterial activity against oxacillin-resistant Staphylococcus haemolyticus after 18 to 24 hrs by broth macrodilution method
Klebsiella pneumoniae [10] = test: Antibacterial activity against Klebsiella pneumoniae after 18 to 24 hrs by broth macrodilution method
Pseudomonas aeruginosa [11] = test: Antibacterial activity against Pseudomonas aeruginosa after 18 to 24 hrs by broth macrodilution method
Staphylococcus aureus [12] = test: Antibacterial activity against Staphylococcus aureus after 18 to 24 hrs by broth macrodilution method
Staphylococcus aureus [13] = test: Antibacterial activity against methicillin-resistant Staphylococcus aureus after 18 to 24 hrs by broth macrodilution method
Staphylococcus aureus [14] = test: Antibacterial activity against Staphylococcus aureus ATCC 25923 after 18 to 24 hrs by broth macrodilution method
Staphylococcus aureus [15] = test: Antibacterial activity against oxacillin-resistant Staphylococcus aureus after 18 to 24 hrs by broth macrodilution method
[16] = system: Staphylococcus epidermidis; test: Antibacterial activity against oxacillin-resistant Staphylococcus epidermidis after 18 to 24 hrs by broth macrodilution method

Compound | inhibition [1] | inhibition [2] | inhibition (Staphylococcus aureus [3]) | inhibition (Staphylococcus aureus [4]) | inhibition (Staphylococcus aureus [5]) | inhibition (Pseudomonas aeruginosa [6]) | inhibition (Klebsiella pneumoniae [7]) | inhibition (Staphylococcus aureus [8]) | also measured
O=C1C=C(NCSc2ccccc2)C(=O)c2ccccc21 | inactive | inactive | inactive | inactive | inactive | inactive | inactive | inactive | –
CC1=C(NCSc2ccccc2)C(=O)c2ccccc2C1=O | inactive | inactive | inactive | inactive | inactive | inactive | inactive | inactive | –
O=C1C=C(NCOCc2cn(-c3ccccc3)nn2)C(=O)c2ccccc21 | inactive | inactive | inactive | inactive | inactive | inactive | inactive | inactive | –
CC(C)(C)OCNC1=CC(=O)c2ccccc2C1=O | inactive | inactive | inactive | inactive | inactive | inactive | inactive | inactive | –
CN[C@H](CC(C)C)C(=O)N[C@H]1C(=O)N[C@@H](CC(N)=O)C(=O)N[C@H]2C(=O)N[C@H]3C(=O)N[C@H](C(=O)N[C@H](C(=O)O)c4cc(O)cc(O)c4-c4cc3ccc4O)[C@H](O)c3ccc(c(Cl)c3)Oc3cc2cc(c3O[C@@H]2O[C@H](CO)[C@@H](O)[C@H](O)[C@H]2O[C@H]2C[C@](C)(N)[C@H](O)[C@H](C)O2)Oc2ccc(cc2Cl)[C@H]1O [VANCOMYCIN] | – | – | – | – | – | – | – | – | diameter of the inhibition zone (DIZ) [1]: 16 mm; diameter of the inhibition zone (DIZ) [2]: 16 mm; diameter of the inhibition zone (DIZ) (Staphylococcus aureus [3]): 16 mm; diameter of the inhibition zone (DIZ) (Staphylococcus aureus [4]): 16 mm; diameter of the inhibition zone (DIZ) (Staphylococcus aureus [5]): 16 mm; MIC [9]: 2 µg/mL (≈ 1.38 µM); diameter of the inhibition zone (DIZ) (Staphylococcus aureus [8]): 16 mm
O=C1C=C(NCSc2ccc(F)cc2)C(=O)c2ccccc21 | inactive | inactive | inactive | inactive | inactive | inactive | inactive | inactive | –
Cc1ccc(SCNC2=CC(=O)c3ccccc3C2=O)cc1 | inactive | inactive | inactive | inactive | inactive | inactive | inactive | inactive | –
O=C(O)c1cn(C2CC2)c2cc(N3CCNCC3)c(F)cc2c1=O [CIPROFLOXACIN] | – | – | – | – | – | – | – | – | MIC (Klebsiella pneumoniae [10]): 1 µg/mL (≈ 3.02 µM); diameter of the inhibition zone (DIZ) (Pseudomonas aeruginosa [6]): 22 mm; diameter of the inhibition zone (DIZ) (Klebsiella pneumoniae [7]): 22 mm; MIC (Pseudomonas aeruginosa [11]): 1 µg/mL (≈ 3.02 µM)
O=C1C=C(NCOCc2ccccc2)C(=O)c2ccccc21 | inactive | inactive | inactive | inactive | inactive | inactive | inactive | inactive | –
COCNC1=CC(=O)c2ccccc2C1=O | – | – | – | – | – | – | – | – | MIC (Staphylococcus aureus [12]): 16 µg/mL (≈ 73.7 µM); diameter of the inhibition zone (DIZ) [1]: 14 mm; diameter of the inhibition zone (DIZ) [2]: 20 mm; diameter of the inhibition zone (DIZ) (Staphylococcus aureus [3]): 18 mm; MIC (Klebsiella pneumoniae [10]): 256 µg/mL (≈ 1180 µM); MIC (Staphylococcus aureus [13]): 16 µg/mL (≈ 73.7 µM); diameter of the inhibition zone (DIZ) (Staphylococcus aureus [4]): 17 mm; MIC (Staphylococcus aureus [14]): 16 µg/mL (≈ 73.7 µM); diameter of the inhibition zone (DIZ) (Staphylococcus aureus [5]): 16 mm; diameter of the inhibition zone (DIZ) (Pseudomonas aeruginosa [6]): 0 mm; MIC [9]: 16 µg/mL (≈ 73.7 µM); diameter of the inhibition zone (DIZ) (Klebsiella pneumoniae [7]): 17 mm; diameter of the inhibition zone (DIZ) (Staphylococcus aureus [8]): 24 mm; MIC (Staphylococcus aureus [15]): 16 µg/mL (≈ 73.7 µM); MIC (Pseudomonas aeruginosa [11]): ≥ 256 µg/mL; MIC [16]: 8 µg/mL (≈ 36.8 µM)
C#CCOCNC1=CC(=O)c2ccccc2C1=O | – | – | – | – | – | – | – | – | MIC (Staphylococcus aureus [12]): 32 µg/mL (≈ 133 µM); diameter of the inhibition zone (DIZ) [1]: 10 mm; diameter of the inhibition zone (DIZ) [2]: 18 mm; diameter of the inhibition zone (DIZ) (Staphylococcus aureus [3]): 12 mm; MIC (Klebsiella pneumoniae [10]): ≥ 256 µg/mL; MIC (Staphylococcus aureus [13]): 64 µg/mL (≈ 265 µM); diameter of the inhibition zone (DIZ) (Staphylococcus aureus [4]): 16 mm; MIC (Staphylococcus aureus [14]): 32 µg/mL (≈ 133 µM); diameter of the inhibition zone (DIZ) (Staphylococcus aureus [5]): 16 mm; diameter of the inhibition zone (DIZ) (Pseudomonas aeruginosa [6]): 18 mm; MIC [9]: 32 µg/mL (≈ 133 µM); diameter of the inhibition zone (DIZ) (Klebsiella pneumoniae [7]): 0 mm; diameter of the inhibition zone (DIZ) (Staphylococcus aureus [8]): 20 mm; MIC (Staphylococcus aureus [15]): 256 µg/mL (≈ 1060 µM); MIC (Pseudomonas aeruginosa [11]): 16 µg/mL (≈ 66.3 µM); MIC [16]: 16 µg/mL (≈ 66.3 µM)
Cc1ccccc1SCNC1=CC(=O)c2ccccc2C1=O | inactive | inactive | inactive | inactive | inactive | inactive | inactive | inactive | –
CC(C)OCNC1=CC(=O)c2ccccc2C1=O | inactive | inactive | inactive | inactive | inactive | inactive | inactive | inactive | –
CCCSCNC1=CC(=O)c2ccccc2C1=O | inactive | inactive | inactive | inactive | inactive | inactive | inactive | inactive | –
CCOCNC1=CC(=O)c2ccccc2C1=O | – | – | – | – | – | – | – | – | MIC (Staphylococcus aureus [12]): 4 µg/mL (≈ 17.3 µM); diameter of the inhibition zone (DIZ) [1]: 10 mm; diameter of the inhibition zone (DIZ) [2]: 16 mm; diameter of the inhibition zone (DIZ) (Staphylococcus aureus [3]): 17 mm; MIC (Klebsiella pneumoniae [10]): ≥ 256 µg/mL; MIC (Staphylococcus aureus [13]): 32 µg/mL (≈ 138 µM); diameter of the inhibition zone (DIZ) (Staphylococcus aureus [4]): 15 mm; MIC (Staphylococcus aureus [14]): 8 µg/mL (≈ 34.6 µM); diameter of the inhibition zone (DIZ) (Staphylococcus aureus [5]): 14 mm; diameter of the inhibition zone (DIZ) (Pseudomonas aeruginosa [6]): 14 mm; MIC [9]: 64 µg/mL (≈ 277 µM); diameter of the inhibition zone (DIZ) (Klebsiella pneumoniae [7]): 0 mm; diameter of the inhibition zone (DIZ) (Staphylococcus aureus [8]): 18 mm; MIC (Staphylococcus aureus [15]): 32 µg/mL (≈ 138 µM); MIC (Pseudomonas aeruginosa [11]): 128 µg/mL (≈ 554 µM); MIC [16]: 16 µg/mL (≈ 69.2 µM)
CSc1ccc(SCNC2=CC(=O)c3ccccc3C2=O)cc1 | inactive | inactive | inactive | inactive | inactive | inactive | inactive | inactive | –
COc1ccc(SCNC2=CC(=O)c3ccccc3C2=O)cc1 | inactive | inactive | inactive | inactive | inactive | inactive | inactive | inactive | –
